This experiment in a line: Inhibition of Hepatitis C virus protease. Also on record: species or system Hepacivirus hominis.

Consider `CC1Cc2cccc(O)c2C(=O)O1` (stereo unspecified) [MELLEIN], for which 35 µM corresponded to half-maximal inhibition (IC50).

The term IC50 denotes the concentration that inhibits the measured activity by half.
